Laboratory results reported in publication PMC2376372, “3-Bromophenyl 6-acetoxymethyl-2-oxo-2H-1-benzopyran-3-carboxylate inhibits cancer cell invasion in vitro and tumour growth in vivo” (British Journal of Cancer, 2003).

Experiments:
MMP-2 and MMP-9 = assay: Gelatin zymography of HT1080 conditioned medium; type: biochemical, human; settings: 1–100 μM in HT1080 conditioned medium
Protocol: The culture medium of human fibrosarcoma HT1080 cells (DMEM) was removed and concentrated 20-fold in a Vivaspin 6 ml concentrator. It was incubated for 30 min at ambient temperature in nonreducing sample buffer and run under Laemmli conditions ([Laemmli, 1970]) by loading a volume of 25 μl onto 7.5% polyacrylamide gels containing 0.1% sodium dodecyl sulphate (SDS), 2 mg ml^−1 casein and 0.16 μM human plasminogen. Following electrophoresis, gels were incubated for 1 h in 2.5% (v v^−1) Triton X-100 for removal of SDS and then for 1 h at 37°C in 50 mM Tris-HCl, 0.1 M NaCl, pH 7.6. Plasminogen activator (PA) activity was visualised as clear bands of lysis upon staining with 0.1% Coomassie blue R250. Purified human high-molecular-weight two-chain urokinase plasminogen activator (HMW-uPA) and low-molecular-weight urokinase plasminogen activator (LMW-uPA) were run in each gel as positive controls. An analogous protocol was followed to detect enzymatic activities towards MMP-2 and MMP-9 except that the 7% SDS–PAGE contained 1 mg ml^−1 bovine gelatin. The gels were incubated at 37°C for about 18 h in 5 mM Tris, pH 7.6 containing 0.2 M NaCl, 5 mM CaCl2 and 0.02 (w v^−1) Brij35. Protein staining was performed during 1 h with a 0.25% solution of Coomassie brillant blue R250 in 50% methanol and 7% acetic acid and destaining in a solution of 20% methanol and […]. […]

MMP-9 = target: T1, MMP-9 (Homo sapiens, UniProt P14780); assay: Inhibition of purified MMP-9; type: biochemical; settings: purified enzyme, pH 7.5, 25°C
T1 construct: purchased Calbiochem
T1 sequence (P14780 94-707, species assumed): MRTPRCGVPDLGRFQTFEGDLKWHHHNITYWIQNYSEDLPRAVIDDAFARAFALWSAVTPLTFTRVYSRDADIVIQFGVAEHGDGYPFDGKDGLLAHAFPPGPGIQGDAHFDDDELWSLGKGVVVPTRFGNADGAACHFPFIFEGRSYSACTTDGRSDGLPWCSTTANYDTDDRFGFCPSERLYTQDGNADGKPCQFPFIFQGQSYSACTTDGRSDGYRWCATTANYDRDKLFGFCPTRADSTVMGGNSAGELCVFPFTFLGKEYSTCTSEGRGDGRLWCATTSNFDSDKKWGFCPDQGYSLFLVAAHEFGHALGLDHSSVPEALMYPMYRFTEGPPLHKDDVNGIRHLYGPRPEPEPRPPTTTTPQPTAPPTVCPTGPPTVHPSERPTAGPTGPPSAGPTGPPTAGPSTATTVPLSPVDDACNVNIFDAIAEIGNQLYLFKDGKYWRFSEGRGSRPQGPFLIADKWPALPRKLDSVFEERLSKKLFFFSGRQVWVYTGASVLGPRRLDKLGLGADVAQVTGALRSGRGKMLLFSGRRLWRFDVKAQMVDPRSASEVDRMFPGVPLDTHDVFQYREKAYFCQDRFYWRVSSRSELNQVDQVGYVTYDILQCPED
Protocol: Bovine α-CT and LMW-uPA (MW=33 000 Da) were purchased from Sigma, HMW-uPA (MW=54 000 Da) from Choay, trypsin (TRY) and THR from Boehringer-Indelheim (Germany), and MMP-2 and MMP-9 from Calbiochem. Human leucocyte elastase and PM were from Elastase Products Co. and Biogenic, respectively. Except for THR, HMW-uPA, MMP-2 and MMP-9, enzyme concentrations were determined by active-site titrations using the appropriate titrant ([Bender et al, 1966]; [Chase and Shaw, 1970]; [Powers and Gupton, 1977]). Several enzymes were assayed spectrophotometrically at 405 nm using the following p-nitroanilide substrates: succininyl-Ala2-Pro-Phe-p-nitroanilide (Suc-AAPF-p-NA), benzoyl-Arg-p-nitroanilide (Bz-R-p-NA) and methoxysuccinyl-Ala2-Pro-Val-p-nitroanilide (MeO-Suc-AAPV-p-NA) for α-CT, TRY and HLE, respectively (obtained from Sigma); or S-2238 ([…]), S-2444 (<Glu-Gly-Arg-p-nitroanilide) and S-2251 (H-D-Val-Leu-Lys-p-nitroanilide) for THR, HMW- and LMW-uPA, and PM, respectively (from Biogenic). Matrix metalloprotease-2 previously activated by treatment with APMA were assayed at 412 nm with the thiopeptide Ac-Pro-Leu-Gly-^Sleu-Leu-Gly-Oet in the presence of 5,5′-dithiobis(2-nitrobenzenic) acid (DTNB). […]

SMILES | effect on gelatinolytic activities of conditioned culture medium (gelatin zymography) (MMP-2 and MMP-9) | inhibition of MMP-9 (MMP-9)
CC(=O)OCc1ccc2oc(=O)c(C(=O)Oc3cccc(Cl)c3)cc2c1 [compound 4, 3-chlorophenyl 6-acetoxymethyl-2-oxo-2H-1-benzopyran-3-carboxylate] | did not abrogate | not affected
CC(=O)OCc1ccc2oc(=O)c(C(=O)Oc3cccc(Br)c3)cc2c1 [compound 7, 3-bromophenyl 6-acetoxy-methyl-2-oxo-2H-1-benzopyran-3-carboxylate] | did not abrogate | not affected
